Test results: patent US20100119512A1, “METHODS OF DIAGNOSING, TREATING, AND PREVENTING INCREASED VASCULAR PERMEABILITY” (Joslin Diabetes Center, priority 2007, published 2010)

Columns and labels:
[1] = system: retinal vascular permeability; details: rats, cited from earlier work
[2] = system: prekallikrein (PK) activation by FXII; assay: PK activation by FXII in the presence of HK, fluorogenic kallikrein substrate; assay type: biochemical, human; details: for effect on kallikrein activation in vitro: PK activation by FXII in the presence of HK
Description: FIG. 2 is a line graph illustrating the effect of varying concentrations of C1-INH on PK activation by FXII in the presence of HK. Kallikrein activity was measured as cleavage of synthetic fluorogenic kallikrein substrate (0.4 mM) on a microplate reader at 37° C. at 15 minutes (means±s.e.m.; n=4).
FIG. 3 is line graph illustrating the effect of varying concentrations of anti-PK antibody on PK activation by FXII in the presence of HK (means±s.e.m. n=5-6).
The effects of C1-INH and anti-PK antibody on the kinetics of PK activation by factor XII (FXII) were monitored in vitro using a fluorescent kallikrein substrate. Fluorogenic kallikrein substrate (H-D-Val-Leu-Arg-AFC; Calbiochem) was used to quantify kallikrein enzymatic activity.

## CA-I: human erythrocyte CA-I (Sigma), carbonic anhydrase 1
[1]; intravitreal
  effect of intravitreal injection on retinal vascular permeability: increased
[2]
  effect on kallikrein activation in vitro: Neither CA-I or bicarbonate ion affected

## CC(=O)Nc1nnc(S(N)(=O)=O)s1 [acetazolamide, reference compound]
[1]
  effect on increased retinal permeability induced by transplant of vitreous from patients with advanced diabetic retinopathy: blocked

## O=C(O)O [bicarbonate ion]
[2]
  effect on kallikrein activation in vitro: Neither CA-I or bicarbonate ion affected

B1: C1-INH: C1 inhibitor; binds covalently to the active site of FXII (protein, UniProt P05155 23-500, looked up)
Plasma protease C1 inhibitor: NPNATSSSSQDPESLQDRGEGKVATTVISKMLFVEPILEVSSLPTTNSTTNSATKITANTTDEPTTQPTTEPTTQPTIQPTQPTTQLPTDSPTQPTTGSFCPGPVTLCSDLESHSTEAVLGDALVDFSLKLYHAFSAMKKVETNMAFSPFSIASLLTQVLLGAGENTKTNLESILSYPKDFTCVHQALKGFTTKGVTSVSQIFHSPDLAIRDTFVNASRTLYSSSPRVLSNNSDANLELINTWVAKNTNNKISRLLDSLPSDTRLVLLNAIYLSAKWKTTFDPKKTRMEPFHFKNSVIKVPMMNSKKYPVAHFIDQTLKAKVGQLQLSHNLSLVILVPQNLKHRLEDMEQALSPSVFKAIMEKLEMSKFQPTLLTLPRIKVTTSQDMLSIMEKLEFFDFSYDLNLCGLTEDPDLQVSAMQHQTVLELTETGVEAAAASAISVARTLLVFEVQQPFLFVLWDQQHKFPVFMGRVYDPRA
[1]; intravitreal CA-1
  effect on CA-1-induced retinal vascular permeability: blocked
[2]; varying concentrations, FXII and HK present, fluorogenic kallikrein substrate 0.4 mM, 37° C., 15 minutes
  effect on PK activation (kallikrein activity): inhibited
